From article PMC6409085, “Three odorant-binding proteins are involved in the behavioral response of Sogatella furcifera to rice plant volatiles” (PeerJ, 2019)
“And” between values parts separate entries of the source, which are not always exact repeats. Equal entries are not always repeated.

Legend:
[1] = molecular target: SfurOBP1 (Sogatella furcifera, UniProt V5T8N5); experiment: biochemical; type: binding; conditions: for Fluorescence competitive binding assay, fluorescence intensity: OBP1, three replicate columns
Sequence of SfurOBP1 (V5T8N5 entry or part of it): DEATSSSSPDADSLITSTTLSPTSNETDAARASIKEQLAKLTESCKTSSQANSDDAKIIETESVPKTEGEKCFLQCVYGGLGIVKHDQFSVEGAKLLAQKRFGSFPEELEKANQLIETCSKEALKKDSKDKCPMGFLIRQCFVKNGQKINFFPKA
Method in brief: (§1)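 In 50 mM Tris-HCl pH 7.4, odorants displace 1-NPN (2.0 µM) from 2.0 µM protein. Emission at 390–490 nm under 337 nm excitation is measured 2 min after competitor addition, in triplicate. Ki is obtained from IC50 and the 1-NPN dissociation constant.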

[2] = molecular target: SfurOBP11 (Sogatella furcifera, UniProt V5T6E3); experiment: biochemical; type: binding
Sequence of SfurOBP11 (V5T6E3 entry or part of it): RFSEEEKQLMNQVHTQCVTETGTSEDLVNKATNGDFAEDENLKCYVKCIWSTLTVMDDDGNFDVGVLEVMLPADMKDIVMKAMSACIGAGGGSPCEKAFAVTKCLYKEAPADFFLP
Method in brief: as §1

[3] = molecular target: SfurOBP2 (Sogatella furcifera, UniProt V5T759); experiment: biochemical; type: binding
Sequence of SfurOBP2 (V5T759 entry or part of it): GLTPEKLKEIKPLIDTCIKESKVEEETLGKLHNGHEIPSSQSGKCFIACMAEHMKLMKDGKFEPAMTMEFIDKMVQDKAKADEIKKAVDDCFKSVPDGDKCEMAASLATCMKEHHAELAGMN
Method in brief: as §1

[4] = molecular target: SfurOBP3 (Sogatella furcifera, UniProt V5T818); experiment: biochemical; type: binding; conditions: for Fluorescence competitive binding assay, fluorescence intensity: OBP3, three replicate columns
Sequence of SfurOBP3 (V5T818 entry or part of it): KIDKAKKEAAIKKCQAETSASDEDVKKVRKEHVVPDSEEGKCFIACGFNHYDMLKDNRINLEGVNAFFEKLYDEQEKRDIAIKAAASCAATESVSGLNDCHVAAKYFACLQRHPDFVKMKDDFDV
Method in brief: as §1

[5] = tested on: S. furcifera adults; experiment: Y-tube olfactometer behavioral trials; type: in vivo, Sogatella furcifera; conditions: odorant 50 µL/L vs hexane; adults
Method in brief: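 Single S. furcifera adults (2 days post-emergence, starved 0.5 h) chose between odorant (100 µL of 50 µL/L on filter paper) and hexane control in a glass Y-tube, charcoal-filtered humidified air 300 mL/min per arm, 25 ± 1 °C, 50% RH. Choice scored if insect passed half an arm and stayed >1 min within 10 min; 45 insects per compound, chi-squared test.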

Fluorescence competitive binding assay, fluorescence intensity ([1]; ligand concentration 2 (μM)): 7058 and 6495 and 6761
Fluorescence competitive binding assay, fluorescence intensity ([1]; ligand concentration 4 (μM)): 6839 and 6210 and 6737
Fluorescence competitive binding assay, fluorescence intensity ([1]; ligand concentration 6 (μM)): 6250 and 6285 and 6245
Fluorescence competitive binding assay, fluorescence intensity ([1]; ligand concentration 8 (μM)): 7860 and 6318 and 6460
Fluorescence competitive binding assay, fluorescence intensity ([1]; ligand concentration 10 (μM)): 7929 and 6952 and 5745
Fluorescence competitive binding assay, fluorescence intensity ([1]; ligand concentration 12 (μM)): 6197 and 6258 and 6135
Fluorescence competitive binding assay, fluorescence intensity ([1]; ligand concentration 14 (μM)): 6889 and 6127 and 7279
Fluorescence competitive binding assay, fluorescence intensity ([1]; ligand concentration 16 (μM)): 6363 and 6530 and 5971
Fluorescence competitive binding assay, fluorescence intensity ([1]; ligand concentration 18 (μM)): 6197 and 6677 and 5953
Fluorescence competitive binding assay, fluorescence intensity ([1]; ligand concentration 20 (μM)): 6241 and 6216 and 6243
IC50 ([1]; SfurOBP1, protein and 1-NPN both 2.0 µM, competitor 2-20 µM, read-out: IC50): > 20 µM
IC50 ([2]; SfurOBP11, protein and 1-NPN both 2.0 µM, competitor 2-20 µM, read-out: IC50): > 20 µM
Fluorescence intensity, fluorescence competitive binding assay, OBP11 ([2]; ligand concentration 2, replicate 1): 29622
Fluorescence intensity, fluorescence competitive binding assay, OBP11 ([2]; ligand concentration 2, replicate 2): 27160
Fluorescence intensity, fluorescence competitive binding assay, OBP11 ([2]; ligand concentration 2, replicate 3): 24651
Fluorescence intensity, fluorescence competitive binding assay, OBP11 ([2]; ligand concentration 4, replicate 1): 27823
Fluorescence intensity, fluorescence competitive binding assay, OBP11 ([2]; ligand concentration 4, replicate 2): 29657
Fluorescence intensity, fluorescence competitive binding assay, OBP11 ([2]; ligand concentration 4, replicate 3): 29706
Fluorescence intensity, fluorescence competitive binding assay, OBP11 ([2]; ligand concentration 6, replicate 1): 29000
Fluorescence intensity, fluorescence competitive binding assay, OBP11 ([2]; ligand concentration 6, replicate 2): 25791
Fluorescence intensity, fluorescence competitive binding assay, OBP11 ([2]; ligand concentration 6, replicate 3): 27264
Fluorescence intensity, fluorescence competitive binding assay, OBP11 ([2]; ligand concentration 8, replicate 1): 26196
Fluorescence intensity, fluorescence competitive binding assay, OBP11 ([2]; ligand concentration 8, replicate 2): 25787
Fluorescence intensity, fluorescence competitive binding assay, OBP11 ([2]; ligand concentration 8, replicate 3): 26691
Fluorescence intensity, fluorescence competitive binding assay, OBP11 ([2]; ligand concentration 10, replicate 1): 22993
Fluorescence intensity, fluorescence competitive binding assay, OBP11 ([2]; ligand concentration 10, replicate 2): 24045
Fluorescence intensity, fluorescence competitive binding assay, OBP11 ([2]; ligand concentration 10, replicate 3): 23459
Fluorescence intensity, fluorescence competitive binding assay, OBP11 ([2]; ligand concentration 12, replicate 1): 23301
Fluorescence intensity, fluorescence competitive binding assay, OBP11 ([2]; ligand concentration 12, replicate 2): 22698
Fluorescence intensity, fluorescence competitive binding assay, OBP11 ([2]; ligand concentration 12, replicate 3): 22770
Fluorescence intensity, fluorescence competitive binding assay, OBP11 ([2]; ligand concentration 14, replicate 1): 21327
Fluorescence intensity, fluorescence competitive binding assay, OBP11 ([2]; ligand concentration 14, replicate 2): 20283
Fluorescence intensity, fluorescence competitive binding assay, OBP11 ([2]; ligand concentration 14, replicate 3): 20685
Fluorescence intensity, fluorescence competitive binding assay, OBP11 ([2]; ligand concentration 16, replicate 1): 18242
Fluorescence intensity, fluorescence competitive binding assay, OBP11 ([2]; ligand concentration 16, replicate 2): 16904
Fluorescence intensity, fluorescence competitive binding assay, OBP11 ([2]; ligand concentration 16, replicate 3): 18315
Fluorescence intensity, fluorescence competitive binding assay, OBP11 ([2]; ligand concentration 18, replicate 1): 21574
Fluorescence intensity, fluorescence competitive binding assay, OBP11 ([2]; ligand concentration 18, replicate 2): 21057
Fluorescence intensity, fluorescence competitive binding assay, OBP11 ([2]; ligand concentration 18, replicate 3): 21178
Fluorescence intensity, fluorescence competitive binding assay, OBP11 ([2]; ligand concentration 20, replicate 1): 19958
Fluorescence intensity, fluorescence competitive binding assay, OBP11 ([2]; ligand concentration 20, replicate 2): 19749
Fluorescence intensity, fluorescence competitive binding assay, OBP11 ([2]; ligand concentration 20, replicate 3): 19854
IC50 ([3]; SfurOBP2, protein and 1-NPN both 2.0 µM, competitor 2-20 µM, read-out: IC50): > 20 µM
Fluorescence competitive binding assay, OBP2 (raw fluorescence reading) ([3]; ligand concentration 2 (unit not given), replicate column 1 of 3): 19948
Fluorescence competitive binding assay, OBP2 (raw fluorescence reading) ([3]; ligand concentration 2 (unit not given), replicate column 2 of 3): 17721
Fluorescence competitive binding assay, OBP2 (raw fluorescence reading) ([3]; ligand concentration 2 (unit not given), replicate column 3 of 3): 20397
Fluorescence competitive binding assay, OBP2 (raw fluorescence reading) ([3]; ligand concentration 4 (unit not given), replicate column 1 of 3): 18968
Fluorescence competitive binding assay, OBP2 (raw fluorescence reading) ([3]; ligand concentration 4 (unit not given), replicate column 2 of 3): 18911
Fluorescence competitive binding assay, OBP2 (raw fluorescence reading) ([3]; ligand concentration 4 (unit not given), replicate column 3 of 3): 20133
Fluorescence competitive binding assay, OBP2 (raw fluorescence reading) ([3]; ligand concentration 6 (unit not given), replicate column 1 of 3): 20477
Fluorescence competitive binding assay, OBP2 (raw fluorescence reading) ([3]; ligand concentration 6 (unit not given), replicate column 2 of 3): 18306
Fluorescence competitive binding assay, OBP2 (raw fluorescence reading) ([3]; ligand concentration 6 (unit not given), replicate column 3 of 3): 21619
Fluorescence competitive binding assay, OBP2 (raw fluorescence reading) ([3]; ligand concentration 8 (unit not given), replicate column 1 of 3): 17546
Fluorescence competitive binding assay, OBP2 (raw fluorescence reading) ([3]; ligand concentration 8 (unit not given), replicate column 2 of 3): 19283
Fluorescence competitive binding assay, OBP2 (raw fluorescence reading) ([3]; ligand concentration 8 (unit not given), replicate column 3 of 3): 19094
Fluorescence competitive binding assay, OBP2 (raw fluorescence reading) ([3]; ligand concentration 10 (unit not given), replicate column 1 of 3): 16315
Fluorescence competitive binding assay, OBP2 (raw fluorescence reading) ([3]; ligand concentration 10 (unit not given), replicate column 2 of 3): 17446
Fluorescence competitive binding assay, OBP2 (raw fluorescence reading) ([3]; ligand concentration 10 (unit not given), replicate column 3 of 3): 18120
Fluorescence competitive binding assay, OBP2 (raw fluorescence reading) ([3]; ligand concentration 12 (unit not given), replicate column 1 of 3): 15600
Fluorescence competitive binding assay, OBP2 (raw fluorescence reading) ([3]; ligand concentration 12 (unit not given), replicate column 2 of 3): 16015
Fluorescence competitive binding assay, OBP2 (raw fluorescence reading) ([3]; ligand concentration 12 (unit not given), replicate column 3 of 3): 15598
Fluorescence competitive binding assay, OBP2 (raw fluorescence reading) ([3]; ligand concentration 14 (unit not given), replicate column 1 of 3): 15415
Fluorescence competitive binding assay, OBP2 (raw fluorescence reading) ([3]; ligand concentration 14 (unit not given), replicate column 2 of 3): 15014
Fluorescence competitive binding assay, OBP2 (raw fluorescence reading) ([3]; ligand concentration 14 (unit not given), replicate column 3 of 3): 15552
Fluorescence competitive binding assay, OBP2 (raw fluorescence reading) ([3]; ligand concentration 16 (unit not given), replicate column 1 of 3): 16559
Fluorescence competitive binding assay, OBP2 (raw fluorescence reading) ([3]; ligand concentration 16 (unit not given), replicate column 2 of 3): 13446
Fluorescence competitive binding assay, OBP2 (raw fluorescence reading) ([3]; ligand concentration 16 (unit not given), replicate column 3 of 3): 13014
Fluorescence competitive binding assay, OBP2 (raw fluorescence reading) ([3]; ligand concentration 18 (unit not given), replicate column 1 of 3): 16224
Fluorescence competitive binding assay, OBP2 (raw fluorescence reading) ([3]; ligand concentration 18 (unit not given), replicate column 2 of 3): 16658
Fluorescence competitive binding assay, OBP2 (raw fluorescence reading) ([3]; ligand concentration 18 (unit not given), replicate column 3 of 3): 15875
Fluorescence competitive binding assay, OBP2 (raw fluorescence reading) ([3]; ligand concentration 20 (unit not given), replicate column 1 of 3): 15466
Fluorescence competitive binding assay, OBP2 (raw fluorescence reading) ([3]; ligand concentration 20 (unit not given), replicate column 2 of 3): 14819
Fluorescence competitive binding assay, OBP2 (raw fluorescence reading) ([3]; ligand concentration 20 (unit not given), replicate column 3 of 3): 14364
Fluorescence competitive binding assay, fluorescence intensity ([4]; ligand concentration 2): 54416 and 49651 and 50603
Fluorescence competitive binding assay, fluorescence intensity ([4]; ligand concentration 4): 47681 and 49063 and 52745
Fluorescence competitive binding assay, fluorescence intensity ([4]; ligand concentration 6): 47400 and 49699 and 51997
Fluorescence competitive binding assay, fluorescence intensity ([4]; ligand concentration 8): 47134 and 47465 and 47300
Fluorescence competitive binding assay, fluorescence intensity ([4]; ligand concentration 10): 47300 and 47488 and 47127
Fluorescence competitive binding assay, fluorescence intensity ([4]; ligand concentration 12): 41818 and 40552 and 41184
Fluorescence competitive binding assay, fluorescence intensity ([4]; ligand concentration 14): 39535 and 41064 and 41296
Fluorescence competitive binding assay, fluorescence intensity ([4]; ligand concentration 16): 37737 and 36118 and 39070
Fluorescence competitive binding assay, fluorescence intensity ([4]; ligand concentration 18): 41678 and 41915 and 41872
Fluorescence competitive binding assay, fluorescence intensity ([4]; ligand concentration 20): 43199 and 40517 and 41843
IC50 ([4]; SfurOBP3, protein and 1-NPN both 2.0 µM, competitor 2-20 µM, read-out: IC50): > 20 µM
Compound: CCCCCC=O [caproaldehyde]
number of insects choosing hexane arm [5]: 9
number of insects choosing volatilies arm [5]: 12
number of insects failed (no choice) [5]: 19
